In US20060234906A1, “Structure of a complex of retinoblastoma protein bound to e2f, and uses thereof” (priority 2002, published 2006):
Values belong to the molecule of their own block, whether it stands above or below them. Residues, ends and D or L forms follow the SMILES beside them. *: point of attachment. 5FAM = O=C1OC2(c3ccc(O)cc3Oc3cc(O)ccc32)c2ccc(C(=O)*)cc21

What was measured:
pRb [1] = target: T1, pRb (Homo sapiens, UniProt P06400); assay: Fluorescence polarization titration binding of fluoro-labelled peptides with pRb
T1 sequence (P06400 373-771 limits assumed): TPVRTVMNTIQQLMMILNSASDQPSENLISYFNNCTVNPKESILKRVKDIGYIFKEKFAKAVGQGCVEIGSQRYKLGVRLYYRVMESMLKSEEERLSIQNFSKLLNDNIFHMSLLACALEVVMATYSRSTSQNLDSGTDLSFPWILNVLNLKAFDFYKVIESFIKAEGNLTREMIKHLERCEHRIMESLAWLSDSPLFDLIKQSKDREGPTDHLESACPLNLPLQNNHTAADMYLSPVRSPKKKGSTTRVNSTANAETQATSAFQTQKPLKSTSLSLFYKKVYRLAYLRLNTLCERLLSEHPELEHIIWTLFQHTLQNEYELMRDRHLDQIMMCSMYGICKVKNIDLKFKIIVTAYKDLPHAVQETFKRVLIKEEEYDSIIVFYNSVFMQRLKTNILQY
Excerpt: Synthetic peptides were synthesised and fluoro-tagged using either N-terminal labelling with 5 carboxyfluorescein succinimidyl ester or cysteine labelling with single isomer tetramethylrhodamine-5-maleimide. […] Fluorescein fluorescence measured at λexcite=485 and λemit=520 nm
Rhodamine fluorescence measured at λexcite=545 and λemit=580 nm
Measurements were made using BMG Fluorostar plate reader fitted with polarization optic. […] Data were fitted to a one site binding model using Graphpad prism.
pRb titration curves were performed in 96-well black plates, in a total reaction volume of 100 μL. Doubling dilutions from 10 μM stock of pRb were made in binding buffer (50 mM Tris HCl, pH7.0, 100 mM NaCl, 10 mM DTT, 0.05% NP-40) and 80 μL added in triplicate to wells. 20 μL of 2 μM fluoro-peptide was added and pipetted up and down to mix. The plate was read after 1 hr incubation at room temperature.

pRb [2] = target: T2, pRb (Homo sapiens, UniProt P06400); assay: Competition experiment (Ni column, SDS-PAGE): E2F(409-426) against E2F(243-437) for binding to pRb; conditions: qualitative competition experiment
T2 construct: His6-RbAB (residues 376-792); made in house
T2 sequence (P06400 376-792): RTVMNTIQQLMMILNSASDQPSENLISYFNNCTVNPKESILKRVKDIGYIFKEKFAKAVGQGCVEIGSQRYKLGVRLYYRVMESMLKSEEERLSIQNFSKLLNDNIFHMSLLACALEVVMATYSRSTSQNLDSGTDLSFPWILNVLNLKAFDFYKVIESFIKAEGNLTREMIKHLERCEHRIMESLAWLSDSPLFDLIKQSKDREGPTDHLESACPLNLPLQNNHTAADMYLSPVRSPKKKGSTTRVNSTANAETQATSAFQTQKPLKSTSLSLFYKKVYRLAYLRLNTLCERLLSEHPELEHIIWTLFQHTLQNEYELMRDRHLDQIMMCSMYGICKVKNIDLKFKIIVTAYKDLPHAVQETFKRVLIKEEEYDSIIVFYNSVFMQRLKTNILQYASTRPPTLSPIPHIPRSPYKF
Excerpt: The proteins used in these experiments were His6-RbABC (RESIDUES 380-929); MW 66.07 kDa, non-tagged RbAB (residues 372-787); MW 48.67 KDa, are His6-RbAB (residues 376-792); MW 49.86 KDa, E2F(243-437); MW 21.45 KDa HPV E7 (residues 17-98); MW 9.38 KDa and E2F(409-426); MW 2.12 KDa. Protein concentrations were carefully determined by u.v. spectroscopy and confirmed by ITC titrations. The small acidic E2F proteins stain much weaker than Rb with Coomassie on SDS-PAGE. For all gel lanes contained a final RbAB concentration of ca. 7 μM. After equilibration with E2F(243-437) and E2F(409-426) the samples were loaded onto a 1.0 ml Ni column and washed with 7×0.5 ml of loading buffer (50 mM Tris pH 7.5, 200 mM NaCl & 10 mM Imidazole). The samples were then eluted with 7×0.5 ml elution buffer (50 mM Tris, pH 7.5, 200 mM NaCl, 200 mM Imidazole). After volume correction samples were boiled in SDS loading buffer and run on a 4-12% SDS PAGE. For the two pRb proteins and E2F(243-437) were mixed at 40 μM in a final volume of 0.5 ml. After equilibration for 2 hrs the mixture was loaded onto 1 ml Ni beads in a small column, washed with 7×0.5 ml of loading buffer (50 mM Tris, pH 7.5, 200 mM NaCl, 10 mM Imidazole), eluted using 7×0.5 ml elution buffer (50 mM Tris, pH 7.5, 200 mM NaCl, 200 mM Imidazole). Samples, after correcting for volume were boiled in SDS sample buffer and run on a 4-12% SDS gel.

pRb/Fl-E2F = target: T3, pRb/Fl-E2F (Homo sapiens, UniProt P06400); assay: Fluorescence polarization displacement binding, Fl-E2F bound to pRb; conditions: fluoro-tagged peptide 400 nM pre-incubated with pRb 1 μM
T3 sequence (P06400 373-771 limits assumed): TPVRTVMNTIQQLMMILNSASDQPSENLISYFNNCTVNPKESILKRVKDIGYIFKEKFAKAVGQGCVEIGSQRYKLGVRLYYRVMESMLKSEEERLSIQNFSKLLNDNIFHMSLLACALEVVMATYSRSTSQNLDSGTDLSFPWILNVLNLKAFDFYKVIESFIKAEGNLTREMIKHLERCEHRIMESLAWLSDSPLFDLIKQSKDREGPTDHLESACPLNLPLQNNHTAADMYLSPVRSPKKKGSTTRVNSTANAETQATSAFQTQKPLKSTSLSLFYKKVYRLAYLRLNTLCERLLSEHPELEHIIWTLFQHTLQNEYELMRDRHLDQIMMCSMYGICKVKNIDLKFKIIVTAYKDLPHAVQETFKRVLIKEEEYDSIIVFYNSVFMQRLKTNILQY
Method: (§1) Fluoro-tagged peptide (400 nM) was pre-incubated with pRb (1 μM ) and unlabelled peptide added at the concentrations shown. Displacement binding curves were plotted (FIG. 4a), and were fitted to a one site competition binding model using Graphpad prism curve fitting software.

pRb/Fl-E7 = target: T4, pRb/Fl-E7 (Homo sapiens, UniProt P06400); assay: Fluorescence polarization displacement binding, Fl-E7 bound to pRb; conditions: fluoro-tagged peptide 400 nM pre-incubated with pRb 1 μM
T4 sequence (P06400 373-771 limits assumed): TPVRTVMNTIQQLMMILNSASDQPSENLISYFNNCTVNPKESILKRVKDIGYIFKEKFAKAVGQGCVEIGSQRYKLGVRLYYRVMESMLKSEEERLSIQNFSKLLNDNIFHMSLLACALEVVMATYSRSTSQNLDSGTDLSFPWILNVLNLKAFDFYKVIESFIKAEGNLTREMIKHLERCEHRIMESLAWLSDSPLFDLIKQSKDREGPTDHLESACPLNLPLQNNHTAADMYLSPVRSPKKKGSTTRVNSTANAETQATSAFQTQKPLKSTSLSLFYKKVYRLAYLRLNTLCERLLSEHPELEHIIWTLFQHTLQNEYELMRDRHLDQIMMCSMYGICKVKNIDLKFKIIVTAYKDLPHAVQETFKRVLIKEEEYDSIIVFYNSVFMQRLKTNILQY
Method: as §1

RbAB = target: T5, RbAB (Homo sapiens, UniProt P06400); assay: RbAB
T5 construct: residues 372 to 589 of the A domain and 636 to 787 of the B domain; GST (with Prescission protease site) (N, cleaved yes); engineered thrombin site (LVPRGS) at the A-domain end of the A-B linker (C, cleaved yes); engineered thrombin site (LVPRGS) at the B-domain end of the A-B linker (N, cleaved yes); made in house; host or cells: E. coli
T5 sequence (P06400 2-928 limits assumed): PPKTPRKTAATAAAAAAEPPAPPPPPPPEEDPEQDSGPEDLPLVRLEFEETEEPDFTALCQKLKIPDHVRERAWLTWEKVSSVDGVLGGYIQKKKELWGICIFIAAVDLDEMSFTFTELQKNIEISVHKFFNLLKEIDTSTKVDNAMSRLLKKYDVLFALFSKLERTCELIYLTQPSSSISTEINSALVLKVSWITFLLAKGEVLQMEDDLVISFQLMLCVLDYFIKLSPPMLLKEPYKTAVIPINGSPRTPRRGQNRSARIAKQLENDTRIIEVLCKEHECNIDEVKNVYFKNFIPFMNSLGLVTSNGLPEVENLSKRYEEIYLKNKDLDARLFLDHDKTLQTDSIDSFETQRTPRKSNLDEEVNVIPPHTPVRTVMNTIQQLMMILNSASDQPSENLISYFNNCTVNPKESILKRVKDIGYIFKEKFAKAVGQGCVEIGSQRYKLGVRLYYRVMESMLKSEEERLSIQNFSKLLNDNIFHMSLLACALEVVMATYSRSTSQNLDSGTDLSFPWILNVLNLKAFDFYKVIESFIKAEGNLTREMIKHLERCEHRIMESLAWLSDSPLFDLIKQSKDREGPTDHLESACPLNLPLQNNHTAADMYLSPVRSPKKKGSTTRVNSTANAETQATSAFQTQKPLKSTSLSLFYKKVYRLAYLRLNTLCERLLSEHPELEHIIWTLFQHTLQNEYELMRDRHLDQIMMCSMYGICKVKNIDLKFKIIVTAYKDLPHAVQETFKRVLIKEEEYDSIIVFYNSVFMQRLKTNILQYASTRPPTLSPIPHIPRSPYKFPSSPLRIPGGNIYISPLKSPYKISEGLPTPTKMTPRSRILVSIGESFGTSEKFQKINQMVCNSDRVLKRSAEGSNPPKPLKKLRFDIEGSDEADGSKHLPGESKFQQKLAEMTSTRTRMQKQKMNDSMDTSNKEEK
Excerpt: (§2) Table printed on a drawing sheet, FIG. 2B
(§3) The patent's description of the figure: FIG. 2.
(§4) First copying reader's note: Binding constants of E2F fragments to the Rb constructs RbAB and RbABC; the error is printed in the same cell as the value.
Where the first naming reader finds the target: head: RbAB

RbABC = target: T6, RbABC (Homo sapiens, UniProt P06400); assay: RbABC
T6 construct: His6-RbABC (RESIDUES 380-929); made in house; host or cells: E. coli
T6 sequence (P06400 2-928 limits assumed): as above
Excerpt: as §2, §3, §4
Where the first naming reader finds the target: head: RbABC

[3] = target: T7, recombinant pRb A/B domains with E2F(409-426) peptide (Homo sapiens, UniProt P06400); assay: Fluorescence polarization screen (384-well), fluorescein-E2F with pRb, screen controls; assay type: binding; conditions: 1 μM pRb, 0.4 μM fluorescein-E2F
T7 sequence (P06400 373-771 limits assumed): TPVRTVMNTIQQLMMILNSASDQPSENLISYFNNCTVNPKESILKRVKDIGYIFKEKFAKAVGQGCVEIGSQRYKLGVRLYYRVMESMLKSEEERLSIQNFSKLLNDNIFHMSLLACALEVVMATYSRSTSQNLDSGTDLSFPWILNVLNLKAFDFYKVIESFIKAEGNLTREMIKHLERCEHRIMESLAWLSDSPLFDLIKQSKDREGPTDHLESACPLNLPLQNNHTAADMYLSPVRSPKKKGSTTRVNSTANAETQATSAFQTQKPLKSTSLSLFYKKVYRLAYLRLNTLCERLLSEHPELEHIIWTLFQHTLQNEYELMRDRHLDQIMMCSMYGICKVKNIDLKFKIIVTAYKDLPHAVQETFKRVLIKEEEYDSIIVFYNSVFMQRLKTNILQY
Excerpt: Based on the crystal structure defined by the atomic co-ordinates in Annex 1, an FP screen was configured for the interaction of recombinant pRb A/B domains with E2F(409-426) peptide (see FIG. 1B). In addition, a second peptide binding site E7, see FIG. 1B), distant from the E2F binding pocket, was utilized as an internal control for non-specific inhibitors. Fluorophores in the form of fluorescein and rhodamine labelled peptides were synthesised and were used in a primary screen and hit confirmation.
The assay was optimised in 384-well black-plates (Matrix) and automated using a Beckman Fx liquid handling robot. 1 μM pRb in 50 mM Tris HCl, pH7.0, 100 mM NaCl, 10 mM DTT, 0.05% NP-40 was mixed with 40 μM compound (4% DMSO) and 0.4 μM fluorescein-E2F (final concentrations).
Polarized and depolarized signal from fluorescein-E2F with and without pRb present are shown in FIG. 5 (solid and open circles respectively). Specific disruption of binding by E2F protein and peptide are also shown. […] Addition of unlabelled-E2F at a concentration which gave 50% inhibition is clearly separated from the control populations. Hits were identified as compounds which reduced the polarization signal to less than mean-3sd of the fluorescein-E2F: pRb control.

Molecule: CC(C)C[C@H](NC(=O)[C@H](CCC(N)=O)NC(=O)[C@H](CCC(=O)O)NC(=O)[C@H](Cc1ccc(O)cc1)NC(=O)[C@H](CS)NC(=O)[C@H](Cc1ccc(O)cc1)NC(=O)[C@H](CC(C)C)NC(=O)[C@H](CC(=O)O)NC(=O)c1ccc2c(c1)C(=O)OC21c2ccc(O)cc2Oc2cc(O)ccc21)C(=O)N[C@@H](CC(N)=O)C(=O)O [Fluorescein-E7, N-terminal amide linkage Scarboxyfluorescein-E7, nonomer] (5FAM-DLYCYEQLN-OH; C-terminus assumed)
- Kd (pRb [1]): 130 ± 20 nM

- molar excess required to 50% compete with E2F(243-437) for binding to pRb (pRb [2]): 15-to 30 fold
- displacement of Fl-E2F from pRb (pRb/Fl-E2F): displace Fl-E2F
- displacement of Fl-E7 from pRb (pRb/Fl-E7): without disrupting F1-E7 binding
- Kd (RbAB): 340 ± 20 nM
- Kd (RbABC): 300 ± 30 nM
Molecule: CC[C@H](C)[C@H](NC(=O)CNC(=O)[C@H](CCC(=O)O)NC(=O)CNC(=O)[C@H](CCC(=O)O)NC(=O)[C@H](CCC(=O)O)NC(=O)[C@H](CC(C)C)NC(=O)CNC(=O)[C@H](Cc1ccccc1)NC(=O)[C@H](Cc1c[nH]cn1)NC(=O)[C@H](Cc1ccc(O)cc1)NC(=O)[C@H](CC(=O)O)NC(=O)[C@@H](N)CC(C)C)C(=O)N[C@@H](CCCNC(=N)N)C(=O)N[C@@H](CC(=O)O)C(=O)N[C@@H](CC(C)C)C(=O)N[C@@H](Cc1ccccc1)C(=O)N[C@@H](CC(=O)O)C(=O)O [E2F(409-426)] (H-LDYHFGLEEGEGIRDLFD-OH)

- displacement of Fl-E2F from pRb (screen control) [3]: completely displaces F1-E2F
B1: E2F protein: E2F protein added as screen control that specifically disrupts binding; probably E2F(243-437) (protein, UniProt Q01094 243-437, looked up, fragment)
chain: LAYVTCQDLRSIADPAEQMVMVIKAPPETQLQAVDSSENFQISLKSKQGPIDVFLCPEETVGGISPGKTPSQEVTSEEENRATDSATIVSPPPSSPPSSLTTDPSQSLLSLEQEPLLSRMGSLRAPVDEDRLSPLVAADSLLEHVREDFSGLLPEEFISLSPPHEALDYHFGLEEGEGIRDLFDCDFGDLTPLDF
